Literature values as cited in patent US20230390267A1, “TREATMENT REGIMENS FOR EARLY IDIOPATHIC PARKINSON'S DISEASE” (BIAL - PORTELA & CA., S.A., priority 2020, published 2023).
Like-named read-outs stand apart in the source and are kept apart here.

What was measured:
[1] = tested on: patients suffering from early idiopathic Parkinson's disease; conditions: addition of entacapone to levodopa/DDCI in early PD; cited from earlier work
[2] = cited from earlier work
'stable' PD patients = conditions: 6 months, cited from earlier work
[3] = tolcapone 100 mg three times daily
[4] = tolcapone 200 mg three times daily

In the case of `CCN(CC)C(=O)/C(C#N)=C/c1cc(O)c(O)c([N+](=O)[O-])c1` [entacapone], the “onset of motor complications and frequency of dyskinesia” value [1] is listed as “shorter time to onset of motor complications and increased frequency of dyskinesia”.

For `N[C@@H](Cc1ccc(O)c(O)c1)C(=O)O` [levodopa], the “plasma half-life of levodopa” value ([2]; oral levodopa combined with carbidopa) is listed as 1.5 h, the “half-life of oral levodopa” value ([2]; when administered with DDCIs) is listed as 1 to 1.5 h and the “extent of brain penetration of levodopa” value ([2]; when combined with a DDCI) is listed as 10%.

In the case of `Cc1ccc(C(=O)c2cc(O)c(O)c([N+](=O)[O-])c2)cc1` [tolcapone], the “reduction in UPDRS Part II activities of daily living (ADL) score” value ('stable' PD patients; [3]) is given as −1.4 points, the “reduction in UPDRS motor score” value ('stable' PD patients; [3]) is given as −2.0 points and the “reduction in UPDRS Part II activities of daily living (ADL) score” value ('stable' PD patients; [4]) is given as −1.6 points. For the same molecule, the “reduction in UPDRS motor score” value ('stable' PD patients; [4]) was −2.3 points.
